Key:
RARα = target: T1, RARα (Homo sapiens, UniProt P10276); test: chimeric receptor transactivation assay, RARα; type: cell-based
T1 sequence (P10276 1-462): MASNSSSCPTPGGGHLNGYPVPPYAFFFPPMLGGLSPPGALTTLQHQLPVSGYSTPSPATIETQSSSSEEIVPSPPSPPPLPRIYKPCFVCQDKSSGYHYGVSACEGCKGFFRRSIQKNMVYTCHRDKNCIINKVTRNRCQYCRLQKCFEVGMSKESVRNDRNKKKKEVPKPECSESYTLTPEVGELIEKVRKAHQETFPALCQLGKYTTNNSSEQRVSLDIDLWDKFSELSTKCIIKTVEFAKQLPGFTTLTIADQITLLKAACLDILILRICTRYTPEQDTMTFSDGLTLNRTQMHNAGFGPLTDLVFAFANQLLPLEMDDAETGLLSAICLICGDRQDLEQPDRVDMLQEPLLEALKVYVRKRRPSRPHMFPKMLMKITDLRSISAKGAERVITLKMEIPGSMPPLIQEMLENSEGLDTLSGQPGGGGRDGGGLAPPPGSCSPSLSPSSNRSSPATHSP
From the text: (§1) The specification of U.S. Pat. No. 5,455,265 is hereby expressly incorporated by reference.
(§2) Table 1 discloses the activity of certain exemplary compounds of the invention in the above-described receptor transactivation and binding assays. Particularly, the transactivation data pertaining to activation of the RAR receptors were obtained in the chimeric assay, and the transactivation data pertaining to the activation of RXR receptors were obtained in the holoreceptor assay.
(§3) Efficacy in a transactivation assay is expressed as a percentage of the maximum potency attained by the compound compared to a standard which, in this case, is the compound named (2E,4E,1′S,2′S)-3-methyl-5-[2′-methyl-2′-(5,5,8,8-tetramethyl-5,6,7,8-tetrahydro-naphthalen-2-yl)-cyclopropyl]-penta-2,4-dienoic acid.
(§4) In Table 1 NA stands for not active at all as an agonist. ND stands for not determined. The first row of numbers pertaining to each compound is the measured EC50 number. […] The third row of numbers pertaining to each compound is the binding Ki number.

RXRγ = target: T2, RXRγ (UniProt P28705); test: holoreceptor transactivation assay, RXRγ; type: cell-based
T2 sequence (P28705 1-463): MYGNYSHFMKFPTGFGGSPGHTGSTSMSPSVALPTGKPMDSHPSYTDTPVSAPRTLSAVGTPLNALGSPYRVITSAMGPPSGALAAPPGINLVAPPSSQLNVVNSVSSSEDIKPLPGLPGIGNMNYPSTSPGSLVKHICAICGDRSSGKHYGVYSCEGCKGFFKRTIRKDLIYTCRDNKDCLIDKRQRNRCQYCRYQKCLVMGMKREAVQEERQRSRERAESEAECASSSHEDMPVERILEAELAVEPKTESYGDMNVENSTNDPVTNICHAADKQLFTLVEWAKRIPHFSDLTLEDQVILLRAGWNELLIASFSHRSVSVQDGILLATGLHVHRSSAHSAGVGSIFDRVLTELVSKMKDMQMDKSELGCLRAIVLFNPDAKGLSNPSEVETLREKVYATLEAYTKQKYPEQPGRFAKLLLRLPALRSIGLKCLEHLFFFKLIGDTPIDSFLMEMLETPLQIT
From the text: The results obtained in this assay are expressed in EC50 numbers, as they are also in the chimeric receptor transactivation assay. The results of the ligand binding assay are expressed in Ki numbers.
(§5) Particularly, the transactivation data pertaining to activation of the RAR receptors were obtained in the chimeric assay, and the transactivation data pertaining to the activation of RXR receptors were obtained in the holoreceptor assay.
as §4

RXRα = target: T3, RXRα (Homo sapiens, UniProt P19793); test: holoreceptor transactivation assay, RXRα; type: cell-based
T3 construct: expressed in transfected cells
T3 sequence (P19793 1-462): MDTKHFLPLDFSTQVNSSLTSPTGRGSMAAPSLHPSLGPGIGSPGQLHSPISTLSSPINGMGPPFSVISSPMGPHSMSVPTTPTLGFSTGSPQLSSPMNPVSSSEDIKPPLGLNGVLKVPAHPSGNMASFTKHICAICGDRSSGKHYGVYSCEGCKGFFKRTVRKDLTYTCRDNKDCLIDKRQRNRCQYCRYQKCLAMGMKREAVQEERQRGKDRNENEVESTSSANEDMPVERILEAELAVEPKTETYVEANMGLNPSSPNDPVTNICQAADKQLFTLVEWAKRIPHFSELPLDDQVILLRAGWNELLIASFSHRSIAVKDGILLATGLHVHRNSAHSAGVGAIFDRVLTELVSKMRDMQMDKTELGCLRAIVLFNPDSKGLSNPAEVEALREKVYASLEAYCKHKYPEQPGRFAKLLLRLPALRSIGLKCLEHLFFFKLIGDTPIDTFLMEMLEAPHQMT
From the text: A holoreceptor transactivation assay and a ligand binding assay which measure the antagonist/agonist like activity of the compounds of the invention, or their ability to bind to the several retinoid receptor subtypes, respectively, are described in published PCT Application No. WO WO93/11755 (particularly on pages 30–33 and 37–41) published on Jun. 24, 1993, the specification of which is also incorporated herein by reference. […] The results obtained in this assay are expressed in EC50 numbers, as they are also in the chimeric receptor transactivation assay. The results of the ligand binding assay are expressed in Ki numbers. (See Cheng et al. Biochemical Pharmacology Vol. 22 pp 3099–3108, expressly incorporated herein by reference.)
as §5, §4

young db/db mice = test: serum thyroxine (T4) in young db/db mice, 14 days oral dosing; type: in vivo
Procedure: In another study the efficacy of RXR agonists in the prevention of diabetes was tested in young db/db mice. […] Serum samples were analyzed by using commercially available kits from Boehring Manheim for their thyroxine (T4) levels in a Boehringer Manheim Hatachi Clinical Chemistry Analyzer as described in the reference manual of Boehringer Mannheim Corporation, 9115 Hague Road, Indianapolis, Ind., USA, expressly incorporated herein.

RARγ = target: T4, RARγ (Homo sapiens, UniProt P13631); test: chimeric receptor transactivation assay, RARγ; type: cell-based
T4 sequence (P13631 185-419 limits assumed): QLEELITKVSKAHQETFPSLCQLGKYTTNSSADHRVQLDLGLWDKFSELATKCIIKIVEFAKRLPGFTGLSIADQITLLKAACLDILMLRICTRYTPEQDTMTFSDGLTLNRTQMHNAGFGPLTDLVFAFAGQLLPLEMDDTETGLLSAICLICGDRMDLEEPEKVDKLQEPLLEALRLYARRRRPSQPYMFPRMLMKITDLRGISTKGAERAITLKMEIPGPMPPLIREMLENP
From the text: as §1, §2, §3, §4

EC50 (RARα; NA = not active at all as an agonist, read-out: RAR Trans. EC50 α) [nM] | RAR α efficacy in percentage as compared to the standard compound (RARα; number in brackets) [%] | EC50 (RXRγ; NA = not active at all as an agonist, read-out: RXR Trans. EC50 γ) [nM] | RXR γ efficacy in percentage as compared to the standard compound (RXRγ; number in brackets) [%] | EC50 (RXRα; NA = not active at all as an agonist, read-out: RXR Trans. EC50 α) [nM] | RXR α efficacy in percentage as compared to the standard compound (RXRα; number in brackets) [%] | Serum thyroxine (young db/db mice; 50 mg/kg orally for 14 days, mean +/- SD (n = 7)) [µg/dL] | effect on serum T4 (in words) (young db/db mice; mouse, in vivo) | EC50 (RARγ; NA = not active at all as an agonist, read-out: RAR Trans. EC50 γ) [nM] | RAR γ efficacy in percentage as compared to the standard compound (RARγ; number in brackets) [%] | Structure (SMILES)
37 | 15 | 9 | 18 | 0.8 | 17 | 1.30 ± 0.28 | does not affect | – | – | CCOc1cc2c(cc1\C(CC)=C(F)/C=C/C(C)=C/C(=O)O)C(C)(C)CCC2(C)C [Compound 2, (2E,4E,6E)-7-(3-Ethoxy-5,5,8,8-tetramethyl-5,6,7,8-tetrahydronaphthalen-2-yl)-6-fluoro-3-methylnona-2,4,6-trienoic acid]
– | – | – | – | – | – | – | – | > 1000 | 15 | CCCOc1cc2c(cc1\C(C)=C(F)/C=C/C(C)=C/C(=O)O)C(C)(C)CCC2(C)C [Compound 4]

From patent US7019034B2, “Compositions and methods for reducing serum glucose and triglyceride levels in diabetic mammals” (Allergan, Inc., priority 2003, dated 2006)
